Measured values taken from ChEMBL document CHEMBL1157318, “Caryophyllene sesquiterpenoids from a fungicolous isolate of Pestalotiopsis disseminata” (2006).
Activity calls are given as the source filed them. The calls are words filed in the database; no cut-off is given here.

Key:
Bacillus subtilis = assay: Antimicrobial activity against Bacillus subtilis ATCC 6051 at 100 ug/disk by agar disk diffusion method; assay type: functional; settings: for zone of inhibition at 100 µg/disc: read-out: IZ
Staphylococcus aureus = assay: Antimicrobial activity against Staphylococcus aureus ATCC 29213 at 100 ug/disk by agar disk diffusion method; assay type: functional; settings: for zone of inhibition at 100 µg/disc: read-out: IZ
Aspergillus flavus = assay: Antimicrobial activity against sAspergillus flavus NRRL 6541 at 200 ug/disk by agar disk diffusion method; assay type: functional, organism-based
Fusarium verticillioides = assay: Antimicrobial activity against Fusarium verticillioides NRRL 25457 at 200 ug/disk by agar disk diffusion method; assay type: functional, organism-based
Escherichia coli = assay: Antimicrobial activity against sEscherichia coli ATCC 25922 at 100 ug/disk by agar disk diffusion method; assay type: functional, organism-based
Candida albicans = assay: Antimicrobial activity against Candida albicans ATCC 14053 at 100 ug/disk by agar disk diffusion method; assay type: functional, organism-based

SMILES	zone of inhibition at 100 µg/disc (Bacillus subtilis)	zone of inhibition at 100 µg/disc (Staphylococcus aureus)	Activity (Aspergillus flavus)	Activity (Fusarium verticillioides)	Activity (Escherichia coli)	Activity (Candida albicans)	Activity (Bacillus subtilis)	Activity (Staphylococcus aureus)
CC1(C)C[C@@H]2/C(CO)=C\C=C/[C@@](C)(O)C[C@H](O)[C@]21O [6-HYDROXYPUNCTAPORONIN B]	12 mm	8 mm	inactive	inactive	inactive	inactive		
CC1(C)C[C@H]2[C@@]1(O)[C@@H](O)C[C@]1(C)C=C[C@@H](O)[C@]21CO	12 mm	8 mm	inactive	inactive	inactive	inactive		
CC1(C)C[C@H]2[C@@]1(O)[C@@H](O)C[C@]1(C)[C@H](O)C=C[C@]21CO			inactive	inactive	inactive	inactive	inactive	inactive
